Test results reported in patent publication US9255295B2, “Method for evaluating the sensitizing potential of a test compound” (IMMUNOSEARCH, priority 2010, dated 2016).
Several values for one entry are separate records, joined by “and”; a condition that tells them apart may be missing. Identical values can stand only once. Like-named read-outs stand apart in the source and are kept apart here.

How the values were obtained:
[1] = tested on: genes specific for sensitization (BRAK, CTSS, DAPK2, FABP4, HSP27, IL18, HSP90, IL1R2, TPSAB1, CXCR1, DEFB1, DHFR, EHF, IVL, KRT4, MELANA, NGAL, PDZK1IP1, PI3 …); test: Expression of the other (non-ARE) sensitization-specific genes in EPISKIN reconstructed skin (quantitative RT-PCR); assay type: cell-based, human
[2] = tested on: ARE gene family (AKR1B10, AKR1C1, AKR1C2, CYP1B1, FTH1P, FTL, G6PD, GCLM, NQO2, SLC7A11, TXNRD1, UGT1A1, UGT1A9, YWHAZ, CD36, CYP1A1, GCLC, HMOX1, NQO1, PSME2 …)

Compound: Nc1ccccc1O [2-aminophenol]
- BRAK grade (NUMBER OF GENES) [1]: 0 (key: If the expression is greater than 1.3 compared to the control, a grade of 11s given; if this expression is lower, the grade is 0)
- CTSS expression compared to control [1]: 1.3 and 1.2 and 1.4
- DAPK2 expression compared to control [1]: 1.0 and 0.9
- DAPK2 grade (NUMBER OF GENES) [1]: 0 (key: If the expression is greater than 1.3 compared to the control, a grade of 11s given; if this expression is lower, the grade is 0)
- DEFB1 expression compared to control [1]: 1.9 and 1.8 and 1.4 and 1.1
- DHFR expression compared to control [1]: 0.9 and 1.2
- DHFR grade (NUMBER OF GENES) [1]: 0 (key: If the expression is greater than 1.3 compared to the control, a grade of 11s given; if this expression is lower, the grade is 0)
- EHF expression compared to control [1]: 1.7 and 1.5 and 1.4 and 1.2
- FABP4 expression compared to control [1]: 1.1 and 0.7 and 0.9
- FABP4 grade (NUMBER OF GENES) [1]: 0 (key: If the expression is greater than 1.3 compared to the control, a grade of 11s given; if this expression is lower, the grade is 0)
- HSP27 expression compared to control [1]: 1.0 and 1.1 and 0.8
- HSP27 grade (NUMBER OF GENES) [1]: 0 (key: If the expression is greater than 1.3 compared to the control, a grade of 11s given; if this expression is lower, the grade is 0)
- HSP90 expression compared to control [1]: 1.5 and 1.2 and 1.0
- IL18 expression compared to control [1]: 0.9 and 0.8 and 1.1
- IL18 grade (NUMBER OF GENES) [1]: 0 (key: If the expression is greater than 1.3 compared to the control, a grade of 11s given; if this expression is lower, the grade is 0)
- IVL expression compared to control [1]: 1.8 and 1.3 and 0.9
- KRT4 expression compared to control [1]: 1.7 and 1.1
- MELANA grade (NUMBER OF GENES) [1]: 0 (key: If the expression is greater than 1.3 compared to the control, a grade of 11s given; if this expression is lower, the grade is 0)
- NGAL expression compared to control [1]: 1.8 and 1.9 and 1.5 and 1.1
- P13 expression compared to control [1]: 1.5 and 1.4 and 1.2 and 1.3
- PDZK1iP1 expression compared to control [1]: 1.0
- PDZK1iP1 grade (NUMBER OF GENES) [1]: 0 (key: If the expression is greater than 1.3 compared to the control, a grade of 11s given; if this expression is lower, the grade is 0)
- SERPINB3 expression compared to control [1]: 1.4 and 1.2 and 1.3
- AHR expression compared to control ([2]; 0.1%): 1.0
- AHR grade (NUMBER OF GENES) ([2]; 0.1%): 0 (if this expression is lower, the grade is 0)
- AKR1B10 expression compared to control ([2]; 0.1%): 0.8
- AKR1B10 grade (NUMBER OF GENES) ([2]; 0.1%): 0 (if this expression is lower, the grade is 0)
- AKR1C1 expression compared to control ([2]; 0.1%): 1.2
- AKR1C1 grade (NUMBER OF GENES) ([2]; 0.1%): 0 (if this expression is lower, the grade is 0)
- AKR1C2 expression compared to control ([2]; 0.1%): 1.1
- AKR1C2 grade (NUMBER OF GENES) ([2]; 0.1%): 0 (if this expression is lower, the grade is 0)
- ARE >1.3 (NUMBER OF GENES) ([2]; 0.1%): 5
- CD36 expression compared to control ([2]; 0.1%): 0.9
- CD36 grade (NUMBER OF GENES) ([2]; 0.1%): 0 (if this expression is lower, the grade is 0)
- CYP1A1 expression compared to control ([2]; 0.1%): 7.1
- CYP1A1 grade (NUMBER OF GENES) ([2]; 0.1%): 1 (If the expression is greater than 1.3 compared to the control, a grade of 11s given)
- CYP1B1 expression compared to control ([2]; 0.1%): 5.3
- CYP1B1 grade (NUMBER OF GENES) ([2]; 0.1%): 1 (If the expression is greater than 1.3 compared to the control, a grade of 11s given)
- FTH1P expression compared to control ([2]; 0.1%): 0.9
- FTH1P grade (NUMBER OF GENES) ([2]; 0.1%): 0 (if this expression is lower, the grade is 0)
- FTL expression compared to control ([2]; 0.1%): 1.0
- FTL grade (NUMBER OF GENES) ([2]; 0.1%): 0 (if this expression is lower, the grade is 0)
- GCLC expression compared to control ([2]; 0.1%): 1.1
- GCLC grade (NUMBER OF GENES) ([2]; 0.1%): 0 (if this expression is lower, the grade is 0)
- GCLM expression compared to control ([2]; 0.1%): 2.1
- GCLM grade (NUMBER OF GENES) ([2]; 0.1%): 1 (If the expression is greater than 1.3 compared to the control, a grade of 11s given)
- HMOX1 expression compared to control ([2]; 0.1%): 1.1
- HMOX1 grade (NUMBER OF GENES) ([2]; 0.1%): 0 (if this expression is lower, the grade is 0)
- NQO1 expression compared to control ([2]; 0.1%): 0.9
- NQO1 grade (NUMBER OF GENES) ([2]; 0.1%): 0 (if this expression is lower, the grade is 0)
- NQO2 expression compared to control ([2]; 0.1%): 1.0
- NQO2 grade (NUMBER OF GENES) ([2]; 0.1%): 0 (if this expression is lower, the grade is 0)
- S100A8 expression compared to control ([2]; 0.1%): 1.4
- S100A8 grade (NUMBER OF GENES) ([2]; 0.1%): 1 (If the expression is greater than 1.3 compared to the control, a grade of 11s given)
- SLC7A11 expression compared to control ([2]; 0.1%): 2.1
- SLC7A11 grade (NUMBER OF GENES) ([2]; 0.1%): 1 (If the expression is greater than 1.3 compared to the control, a grade of 11s given)
- TOTAL ARE (NUMBER OF GENES) ([2]; 0.1%): 5
- TXNRD1 expression compared to control ([2]; 0.1%): 3.0
- TXNRD1 grade (NUMBER OF GENES) ([2]; 0.1%): 1 (If the expression is greater than 1.3 compared to the control, a grade of 11s given)
- UGT1A1 expression compared to control ([2]; 0.1%): 0.9
- UGT1A1 grade (NUMBER OF GENES) ([2]; 0.1%): 0 (if this expression is lower, the grade is 0)
- UGT1A9 expression compared to control ([2]; 0.1%): 1.1
- UGT1A9 grade (NUMBER OF GENES) ([2]; 0.1%): 0 (if this expression is lower, the grade is 0)
- AHR expression compared to control ([2]; 1%): 0.6
- AHR grade (NUMBER OF GENES) ([2]; 1%): 0 (if this expression is lower, the grade is 0)
- AKR1B10 expression compared to control ([2]; 1%): 0.9
- AKR1B10 grade (NUMBER OF GENES) ([2]; 1%): 0 (if this expression is lower, the grade is 0)
- AKR1C1 expression compared to control ([2]; 1%): 4.3
- AKR1C1 grade (NUMBER OF GENES) ([2]; 1%): 1 (If the expression is greater than 1.3 compared to the control, a grade of 11s given)
- AKR1C2 expression compared to control ([2]; 1%): 1.2
- AKR1C2 grade (NUMBER OF GENES) ([2]; 1%): 0 (if this expression is lower, the grade is 0)
- ARE >1.3 (NUMBER OF GENES) ([2]; 1%): 10
- CD36 expression compared to control ([2]; 1%): 0.6
- CD36 grade (NUMBER OF GENES) ([2]; 1%): 0 (if this expression is lower, the grade is 0)
- CYP1A1 expression compared to control ([2]; 1%): 14.6
- CYP1A1 grade (NUMBER OF GENES) ([2]; 1%): 1 (If the expression is greater than 1.3 compared to the control, a grade of 11s given)
- CYP1B1 expression compared to control ([2]; 1%): 15.6
- CYP1B1 grade (NUMBER OF GENES) ([2]; 1%): 1 (If the expression is greater than 1.3 compared to the control, a grade of 11s given)
- FTH1P expression compared to control ([2]; 1%): 1.2
- FTH1P grade (NUMBER OF GENES) ([2]; 1%): 0 (if this expression is lower, the grade is 0)
- FTL expression compared to control ([2]; 1%): 2.1
- FTL grade (NUMBER OF GENES) ([2]; 1%): 1 (If the expression is greater than 1.3 compared to the control, a grade of 11s given)
- GCLC expression compared to control ([2]; 1%): 2.2
- GCLC grade (NUMBER OF GENES) ([2]; 1%): 1 (If the expression is greater than 1.3 compared to the control, a grade of 11s given)
- GCLM expression compared to control ([2]; 1%): 3.5
- GCLM grade (NUMBER OF GENES) ([2]; 1%): 1 (If the expression is greater than 1.3 compared to the control, a grade of 11s given)
- HMOX1 expression compared to control ([2]; 1%): 1.4
- HMOX1 grade (NUMBER OF GENES) ([2]; 1%): 1 (If the expression is greater than 1.3 compared to the control, a grade of 11s given)
- NQO1 expression compared to control ([2]; 1%): 1.1
- NQO1 grade (NUMBER OF GENES) ([2]; 1%): 0 (if this expression is lower, the grade is 0)
- NQO2 expression compared to control ([2]; 1%): 1.1
- NQO2 grade (NUMBER OF GENES) ([2]; 1%): 0 (if this expression is lower, the grade is 0)
